Tested on: wheat rust fungus (Puccinia recondita)
Experiment: Test Example 2: wheat rust, foliar spray before inoculation
Assay type: in vivo
Settings: 500 ppm foliar spray on wheat (Shirogane), inoculated 5 days after spraying, formulated per Formulation Example 6

## COC(=O)Nc1ccccc1COc1ccc(-c2ccccn2)cc1 [methyl N-(2-{[4-(pyridine-2-yl)phenoxy)methyl}phenyl)carbamate]
  area of the lesion relative to untreated wheat: ≥ 70%

— patent publication US10383333B2, “Carbamate compound and use thereof” (SUMITOMO CHEMICAL COMPANY, LIMITED, priority 2015, dated 2019)
